Measured values reported in patent US7709475B2, “Selective inhibitors against Cdk4 and Cdk6 having aminothiazole skeleton” (Banyu Pharmaceutical Co., Ltd., priority 2004, dated 2010).

Experiments:
Assay type in all cases: biochemical
cyclin H-Cdk7 = target: T1, cyclin H-Cdk7 (Homo sapiens, UniProt P50613); assay: Cdk7 inhibitory action: cyclin H-Cdk7 kinase activity; details: cyclin H-Cdk7, 50 μM ATP
T1 construct: made in house; host or cells: insect cell Sf9 (baculovirus)
Source text: The cDNA of Cdk7, and the cDNA of a fusion protein of cyclin H, an activating factor of Cdk7, and glutathione S-transferase, were integrated into a baculovirus expression vector to prepare a recombinant baculovirus. This was co-transfected into insect cell Sf9 to express an active complex of the cyclin H/glutathione S-transferase fusion protein-Cdk7 at a high level. The cells were recovered and solubilized, then the active complex was adsorbed onto Glutathione Sepharose, and a cyclin H-Cdk7 active complex was recovered using Precision Protease.
For the measurement of the activity of cyclin H-Cdk7, a synthetic peptide ([…] was used as the substrate.
(§1) The reaction was performed by partially modifying the method of Kitagawa et al. [Oncogene, Vol. 7, 1067-1074 (1992)]. The volume of the reaction solution was 21.1 μL, and to the R buffer, purified cyclin H-Cdk7, 25 μM of the substrate peptide, 50 μM of non-labeled adenosine triphosphate (ATP), and 1 μCi of [γ-33P]-labeled ATP (2000 to 4000 Ci/mmole) were added to react at 30° C. for 45 minutes. Then, 10 μL of 350 mM phosphate buffer was added to the reaction system to terminate the reaction. The substrate peptide was adsorbed onto P81 paper filter on a 96-well plate, and then washed several times with 75 mM phosphate buffer. The radioactivity of the substrate peptide was measured with a liquid scintillation counter.
(§2) Addition of the compound according to the invention to the reaction system was carried out by first preparing a dilution series of solutions of the compound in dimethylsulfoxide (DMSO), and adding 1.1 μL of the dilutions. A control was provided by adding 1.1 μL of DMSO to the reaction system.
A representative compound of the compounds according to the invention was selected, and the IC50 value of this compound for the cyclin H-Cdk7 activity was determined.

cyclin A-Cdk2 = target: T2, cyclin A-Cdk2 (Homo sapiens, UniProt P24941); assay: Cdk2 inhibitory action: cyclin A-Cdk2 kinase activity; details: cyclin A-Cdk2, 50 μM ATP
T2 construct: made in house; host or cells: insect cell Sf9 (baculovirus)
Source text: (§3) In the same manner as in the case of cyclin D2-Cdk4, the cDNA of Cdk2, and the cDNA of a fusion protein of cyclin A, an activating factor of Cdk2, and glutathione S-transferase, were integrated into a baculovirus expression vector to prepare a recombinant baculovirus. This was co-transfected into insect cell Sf9 to express an active complex of the cyclin A/glutathione S-transferase fusion protein-Cdk2 at a high level. The cells were recovered and solubilized, then the active complex was adsorbed onto Glutathione Sepharose, and a cyclin A-Cdk2 complex was recovered using Precision Protease and was purified by HPLC column chromatography.
For the measurement of the activity of cyclin A-Cdk2, a synthetic peptide (Ala-Lys-Ala-Lys-Lys-Thr-Pro-Lys-Lys-Ala-Lys-Lys) was used as the substrate.
as §1, with “A-Cdk2, 0.01 mg/mL” for “H-Cdk7, 25 μM”, “30” for “45”
as §2
A representative compound of the compounds according to the invention was selected, and the IC50 value of this compound for the cyclin A-Cdk2 activity was determined.

cyclin B-Cdk1 = target: T3, cyclin B-Cdk1 (Homo sapiens, UniProt P06493); assay: Cdk1 (Cdc2) inhibitory action: cyclin B-Cdk1 kinase activity; details: cyclin B-Cdk1, 50 μM ATP
T3 construct: made in house; host or cells: insect cell Sf9 (baculovirus)
T3 sequence (P06493 whole entry): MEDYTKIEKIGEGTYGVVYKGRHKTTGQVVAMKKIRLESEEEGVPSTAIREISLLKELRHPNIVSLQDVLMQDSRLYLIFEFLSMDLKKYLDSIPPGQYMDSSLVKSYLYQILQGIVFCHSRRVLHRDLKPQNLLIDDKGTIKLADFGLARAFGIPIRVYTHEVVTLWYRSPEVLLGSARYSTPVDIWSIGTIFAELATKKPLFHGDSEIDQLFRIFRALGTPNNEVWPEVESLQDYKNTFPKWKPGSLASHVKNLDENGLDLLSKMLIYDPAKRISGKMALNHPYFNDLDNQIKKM
T3 sequence (P14635 whole entry partner): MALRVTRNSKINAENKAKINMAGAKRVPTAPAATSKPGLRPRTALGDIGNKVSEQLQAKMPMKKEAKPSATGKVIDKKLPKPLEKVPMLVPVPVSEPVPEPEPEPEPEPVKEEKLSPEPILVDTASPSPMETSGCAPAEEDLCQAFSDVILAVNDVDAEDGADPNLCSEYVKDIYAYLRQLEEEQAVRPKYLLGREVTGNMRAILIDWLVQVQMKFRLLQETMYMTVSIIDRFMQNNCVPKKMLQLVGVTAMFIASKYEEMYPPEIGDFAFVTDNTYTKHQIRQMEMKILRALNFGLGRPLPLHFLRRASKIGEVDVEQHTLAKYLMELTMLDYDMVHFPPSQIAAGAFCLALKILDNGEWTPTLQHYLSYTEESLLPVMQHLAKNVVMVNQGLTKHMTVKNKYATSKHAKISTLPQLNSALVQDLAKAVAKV
Source text: as §3, with “The” for “In the same manner as in the case of cyclin D2-Cdk4, the”, “Cdk1,” for “Cdk2,”, “B,” for “A,”, “B/glutathione” for “A/glutathione”, “protein-Cdk1” for “protein-Cdk2”, “B-Cdk1 active” for “A-Cdk2”
For the measurement of the activity of cyclin B-Cdk1, a synthetic peptide (Ala-Lys-Ala-Lys-Lys-Thr-Pro-Lys-Lys-Ala-Lys-Lys) was used as the substrate.
as §1, with “B-Cdk1, 100” for “H-Cdk7, 25”, “30” for “45”
as §2
A representative compound of the compounds according to the invention was selected, and the IC50 value of this compound for the cyclin B-Cdk1 activity was determined.

T1 sequence (P50613 whole entry): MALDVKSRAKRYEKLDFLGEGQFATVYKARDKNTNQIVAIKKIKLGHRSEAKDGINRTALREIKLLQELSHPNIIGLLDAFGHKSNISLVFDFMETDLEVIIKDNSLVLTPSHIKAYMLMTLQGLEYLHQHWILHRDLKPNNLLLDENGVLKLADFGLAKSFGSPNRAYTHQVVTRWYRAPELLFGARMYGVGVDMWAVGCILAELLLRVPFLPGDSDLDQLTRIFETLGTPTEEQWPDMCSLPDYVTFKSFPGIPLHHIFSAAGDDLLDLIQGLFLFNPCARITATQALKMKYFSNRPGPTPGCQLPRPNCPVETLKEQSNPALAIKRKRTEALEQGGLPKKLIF
T1 sequence (P51946 whole entry partner): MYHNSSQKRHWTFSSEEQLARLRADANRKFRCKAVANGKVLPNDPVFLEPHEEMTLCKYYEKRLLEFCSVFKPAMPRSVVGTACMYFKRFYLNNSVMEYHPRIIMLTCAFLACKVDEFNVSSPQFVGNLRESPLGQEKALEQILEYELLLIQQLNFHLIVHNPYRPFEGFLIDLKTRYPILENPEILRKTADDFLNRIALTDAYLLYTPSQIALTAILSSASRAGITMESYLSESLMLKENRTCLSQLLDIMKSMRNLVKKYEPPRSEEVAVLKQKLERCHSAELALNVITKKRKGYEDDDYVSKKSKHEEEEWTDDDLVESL

| IC50 (cyclin H-Cdk7) | IC50 (cyclin A-Cdk2) | IC50 (cyclin B-Cdk1) | SMILES |
| --- | --- | --- | --- |
| 120 nM | – | – | Cc1cc(-c2cnc(Nc3cnc(CNCCO)cn3)s2)nc(SC2CCCCC2)n1 [Example 99, 5-[2-(cyclohexylthio)-6-methyl-4-pyrimidinyl]-2-[5-(2-hydroxyethylamino)methyl-2-pyrazinyl]amino-1,3-thiazole] |
| 460 nM | 1900 nM | 750 nM | Cc1cc(-c2cnc(Nc3cnc(CN4CCN(C)CC4)cn3)s2)nc(NC2CCCCC2)n1 [Example 55, 5-[2-(cyclohexylamino)-6-methyl-4-pyrimidinyl]-2-[5-(4-methyl-1-piperazinyl)methyl-2-pyrazinyl]amino-1,3-thiazole] |
| 370 nM | 850 nM | 620 nM | Cc1cc(-c2cnc(Nc3cnc(CN4CCC(N(C)C)C4)cn3)s2)nc(OC2CCCCC2)n1 (stereo not shown) [Example 13, 5-[2-(cyclohexyloxy)-6-methyl-4-pyrimidinyl]-2-[5-(3-dimethylamino-1-pyrrolidinyl)methyl-2-pyrazinyl]amino-1,3-thiazole] |
| 280 nM | 1000 nM | 430 nM | Cc1cc(-c2cnc(Nc3cnc(CN4CCN(C)CC4)cn3)s2)nc(Sc2ccccc2Cl)n1 [Example 109, 5-[2-(2-chlorophenylthio)-6-methyl-4-pyrimidinyl]-2-[5-(4-methyl-1-piperazinyl)methyl-2-pyrazinyl]amino-1,3-thiazole] |
| 370 nM | 1600 nM | 1200 nM | CC(=O)N1CCN(Cc2ccc(Nc3ncc(-c4cc(C)nc(OC5CCCCC5)n4)s3)nc2)CC1 [Example 125, 5-[2-(cyclohexyloxy)-6-methyl-4-pyrimidinyl]-2-[5-(4-acetyl-1-piperazinyl)methyl-2-pyridyl]amino-1,3-thiazole] |
| 140 nM | 480 nM | 870 nM | Cc1cc(-c2cnc(Nc3cnc(CN4CCCC4)cn3)s2)nc(SC2CCCCC2)n1 [Example 93, 5-[2-(cyclohexylthio)-6-methyl-4-pyrimidinyl]-2-[5-(1-pyrrolidinyl)methyl-2-pyrazinyl]amino-1,3-thiazole] |
| 160 nM | 600 nM | 560 nM | Cc1cc(-c2cnc(Nc3cnc(CNC(C)C)cn3)s2)nc(SC2CCCCC2)n1 [Example 96, 5-[2-(cyclohexylthio)-6-methyl-4-pyrimidinyl]-2-[5-(isopropylamino)methyl-2-pyrazinyl]amino-1,3-thiazole] |
| 1200 nM | 4500 nM | 1200 nM | Cc1cc(-c2cnc(Nc3ccc(CN4CCC[C@H]4CO)cn3)s2)nc(NC2CCCCC2)n1 [Example 137, (2S)-5-[2-(cyclohexylamino)-6-methyl-4-pyrimidinyl]-2-[5-(2-hydroxymethyl-1-pyrrolidinyl)methyl-2-pyridyl]amino-1,3-thiazole] |
| 91 nM | 1700 nM | 920 nM | Cc1cc(-c2cnc(Nc3cnc(CN4CCC(N(C)C)C4)cn3)s2)nc(SC2CCCCC2)n1 (stereo not shown) [Example 94, 5-[2-(cyclohexylthio)-6-methyl-4-pyrimidinyl]-2-[5-(3-dimethylamino-1-pyrrolidinyl)methyl-2-pyrazinyl]amino-1,3-thiazole] |

| SMILES | IC50 (cyclin H-Cdk7) | IC50 (cyclin A-Cdk2) | IC50 (cyclin B-Cdk1) |
| --- | --- | --- | --- |
| Cc1cc(-c2cnc(Nc3cnc(CN4CCN(C)CC4)cn3)s2)nc(OC2CCCCC2)n1 [Example 1, 5-[2-(cyclohexyloxy)-6-methyl-4-pyrimidinyl]-2-[5-(4-methyl-1-piperazinyl)methyl-2-pyrazinyl]amino-1,3-thiazole] | 530 nM | 1700 nM | 600 nM |
